Source: patent publication US20050208496A1, “Methods of testing for bronchial asthma or chronic obstructive pulmonary disease” (Genox Research, Inc., priority 2002, published 2005)

Tested on: respiratory epithelial cells

Question: What does the source list for “IL-13: human IL-13 (Peprotech, Inc.) added to the medium at 50 ng/mL to stimulate respiratory epithelial cells”?
Answer: HLA-F (37421_f_at) expression, fold change upon IL-13 stimulation (lot 1, Day 7, IMM method): 2.1 fold; HLA-F (49203_f_at) expression fold change (lot 1, Day 7, IMM method): 2.1 fold; HS3ST1 (41556_s_at) expression fold change upon IL-13 stimulation (lot 1, Day 7, IMM method): 3.7 fold; HUMRTVLH3 (34702_f_at) expression, fold change upon IL-13 stimulation (lot 1, Day 7, IMM method): 7 fold; IFI27 (425_at) expression, fold change upon IL-13 stimulation (lot 1, Day 7, IMM method): 2.8 fold; IFI35 (464_s_at) expression, fold change upon IL-13 stimulation (lot 1, Day 7, IMM method): 4.6 fold; IFI44 (37641_at) expression, fold change upon IL-13 stimulation (lot 1, Day 7, IMM method): 2.3 fold; IFIT1 (915_at) expression, fold change upon IL-13 stimulation (lot 1, Day 7, IMM method): 2.1 fold; IFIT4 (38584_at) expression, fold change upon IL-13 stimulation (lot 1, Day 7, IMM method): 3.4 fold; IFITM1 (675_at) expression, fold change upon IL-13 stimulation (lot 1, Day 7, IMM method): 8.1 fold; IL13RA2 (1016_s_at) expression fold change upon IL-13 stimulation (lot 1, Day 7, IMM method): 5.3 fold; IL19 (47855_at) expression fold change (lot 1, Day 7, IMM method): 2.6 fold; ISG15 (1107_s_at) expression, fold change upon IL-13 stimulation (lot 1, Day 7, IMM method): 3.8 fold; ISG15 (38432_at) expression, fold change upon IL-13 stimulation (lot 1, Day 7, IMM method): 5 fold; ISG20 (33304_at) expression, fold change upon IL-13 stimulation (lot 1, Day 7, IMM method): 4.2 fold; KIAA0469 (37230_at) expression, fold change upon IL-13 stimulation (lot 1, Day 7, IMM method): 2.4 fold; KIAA0537 (33787_at) expression, fold change upon IL-13 stimulation (lot 1, Day 7, IMM method): 3.3 fold; KIAA1199 (36070_at) expression, fold change upon IL-13 stimulation (lot 1, Day 7, IMM method): 2.3 fold; KIAA1268 (57050_at) expression fold change (lot 1, Day 7, IMM method): 2.4 fold; KIAAI268 (59516_at) expression fold change (lot 1, Day 7, IMM method): 4 fold; KRT16 (601_s_at) expression fold change (lot 1, Day 7, IMM method): 3.5 fold; LOC57118 (51085_at) expression fold change (lot 1, Day 7, IMM method): 5 fold; MAT2A (32571_at) expression fold change upon IL-13 stimulation (lot 1, Day 7, IMM method): 2.4 fold; MDA5 (51920_at) expression fold change (lot 1, Day 7, IMM method): 2.8 fold; MFHAS1 (50388_at) expression fold change (lot 1, Day 7, IMM method): 2.6 fold; MMP7 (668_s_at) expression, fold change upon IL-13 stimulation (lot 1, Day 7, IMM method): 2.8 fold; MX2 (879_at) expression fold change (lot 1, Day 7, IMM method): 2.4 fold; MXI (37014_at) expression fold change (lot 1, Day 7, IMM method): 11.2 fold; NK4 (39119_s_at) expression fold change upon IL-13 stimulation (lot 1, Day 7, IMM method): 2.5 fold; NOS2A (1948_f_at) expression fold change upon IL-13 stimulation (lot 1, Day 7, IMM method): 2.8 fold; NOS2A (48918_at) expression fold change (lot 1, Day 7, IMM method): 2.5 fold; NTRK1 (36805_s_at) expression, fold change upon IL-13 stimulation (lot 1, Day 7, IMM method): 6.5 fold; OAF (39695_at) expression, fold change upon IL-13 stimulation (lot 1, Day 7, IMM method): 5.1 fold; OAS1 (38388_at) expression fold change upon IL-13 stimulation (lot 1, Day 7, IMM method): 3.3 fold; OAS1 (38389_at) expression fold change upon IL-13 stimulation (lot 1, Day 7, IMM method): 3.3 fold; OSF-2 (1451_s_at) expression fold change upon IL-13 stimulation (lot 1, Day 7, IMM method): 30.6 fold; PHKB (46459_at) expression fold change (lot 1, Day 7, IMM method): −2.7 fold; PITPNB (35017_f_at) expression, fold change upon IL-13 stimulation (lot 1, Day 7, IMM method): 2.1 fold; PLS1 (39951_at) expression fold change (lot 1, Day 7, IMM method): 7.9 fold; PSMB9 (38287_at) expression fold change upon IL-13 stimulation (lot 1, Day 7, IMM method): 3.1 fold; RASGRP1 (33291_at) expression fold change (lot 1, Day 7, IMM method): 3.3 fold; RIG-1 (59215_at) expression fold change (lot 1, Day 7, IMM method): 3.8 fold; SECTM1 (41045_at) expression, fold change upon IL-13 stimulation (lot 1, Day 7, IMM method): 14 fold; SERPINB2 (37185_at) expression fold change (lot 1, Day 7, IMM method): 3 fold; SERPINB4 (1549_s_at) expression fold change (lot 1, Day 7, IMM method): 23.9 fold; SIAT1 (41352_at) expression fold change upon IL-13 stimulation (lot 1, Day 7, IMM method): 21.6 fold; SLC26A4, pendrin (36376_at) expression fold change (lot 1, Day 7, IMM method): 28.5 fold; SSI-1 (41592_at) expression, fold change upon IL-13 stimulation (lot 1, Day 7, IMM method): 8.3 fold; STAT1 (33339_g_at) expression fold change (lot 1, Day 7, IMM method): 2.1 fold; TSPAN-3 (38612_at) expression, fold change upon IL-13 stimulation (lot 1, Day 7, IMM method): 3.2 fold; UFD1L (811_at) expression, fold change upon IL-13 stimulation (lot 1, Day 7, IMM method): 3.8 fold; WARS (38121_at) expression fold change upon IL-13 stimulation (lot 1, Day 7, IMM method): 6 fold; cig5 (38549_at) expression, fold change upon IL-13 stimulation (lot 1, Day 7, IMM method): 2.2 fold; diubiquitin (39959_at) expression, fold change upon IL-13 stimulation (lot 1, Day 7, IMM method): 9.7 fold; AA059458 (65626_at) expression change (lot 1 Day 3 AI): −2.3; AA151265 (60939_i_at) expression change (lot 1 Day 3 AI): −2.5; AA160156 (47578_at) expression change (lot 1 Day 3 AI): −2.4; AA422178 (53747_at) expression change (lot 1 Day 3 AI): −5.3; AA456099 (59567_at) expression change (lot 1 Day 3 AI): −2; AA772055 46104_at expression change (lot 1 Day 3 AI): −5.4; AF052107 38262_at expression change (lot 1 Day 3 AI): −2.5; AI050855 (64285_at) expression change (lot 1 Day 3 AI): −3.6; AI264299 (84903_f_at) expression change (lot 1 Day 3 AI): −3.1; AI432375 (49819_at) expression change (lot 1 Day 3 AI): −4.3; AI468340 (72604_at) expression change (lot 1 Day 3 AI): −2; AI760772 (58528_s_at) expression change (lot 1 Day 3 AI): −2.3; AI829641 (84270_at) expression change (lot 1 Day 3 AI): −5.1; AI917602 (49985_at) expression change (lot 1 Day 3 AI): −2.3; AI923984 33546_at expression change (lot 1 Day 3 AI): −3.2; AL040936 (45684_at) expression change (lot 1 Day 3 AI): −2.7; AQP5 32909_at expression change (lot 1 Day 3 AI): −6.3; ARHGEF4 36524_at expression change (lot 1 Day 3 AI): −3.5; ARHV (82231_at) expression change (lot 1 Day 3 AI): −2; AW025596 52637_g_at expression change (lot 1 Day 3 AI): −4.8; BARX2 35425_at expression change (lot 1 Day 3 AI): −3.1; BPGM (51261_at) expression change (lot 1 Day 3 AI): −4; CRABP-II 1057_at expression change (lot 1 Day 3 AI): −4.6; DKFZp434K1210 44682_at expression change (lot 1 Day 3 AI): −4.4; DREV1 (63813_at) expression change (lot 1 Day 3 AI): −2; DSC3a, b 47119_at expression change (lot 1 Day 3 AI): −2.4; EIF4EBP1 (54152_at) expression change (lot 1 Day 3 AI): −2.2; FLJ10298 (62490_f_at) expression change (lot 1 Day 3 AI): −3.7; FLJ20048 (49196_at) expression change (lot 1 Day 3 AI): −2.4; FLJ20373 54030_at expression change (lot 1 Day 3 AI): −2.1; GABRP 40339_at expression change (lot 1 Day 3 AI): −2.2; GJA1 32531_at expression change (lot 1 Day 3 AI): −4.4; GSTA3 58023 at expression change (lot 1 Day 3 AI): −4.6; HEY1 44783_s_at expression change (lot 1 Day 3 AI): −6.2; HIN-1 (46200_at) expression change (lot 1 Day 3 AI): −5.4; HSPC195 44705_at expression change (lot 1 Day 3 AI): −2.5; IVL 36355_at expression change (lot 1 Day 3 AI): −6.8; K1IAA1102 (64345_s_at) expression change (lot 1 Day 3 AI): −2.7; KLF7 34216_at expression change (lot 1 Day 3 AI): −2.5; KLF7 (42769_at) expression change (lot 1 Day 3 AI): −3.2; KRT6B (62998_at) expression change (lot 1 Day 3 AI): −3.4; KRT15 37582_at expression change (lot 1 Day 3 AI): −5.2; LOC51297 (49616_at) expression change (lot 1 Day 3 AI): −9.1; LOC51297 (55440_at) expression change (lot 1 Day 3 AI): −57.3; LOC51297 (55442_g_at) expression change (lot 1 Day 3 AI): −14; LOC51316 (63342_at) expression change (lot 1 Day 3 AI): −2; LOC129642 (58288_at) expression change (lot 1 Day 3 AI): −2.8; LOC131177 (43849_s_at) expression change (lot 1 Day 3 AI): −5.2; LOC131177 (45394_s_at) expression change (lot 1 Day 3 AI): −4.4; MGC13102 (54791_at) expression change (lot 1 Day 3 AI): −6.5; MGC14128 55924_at expression change (lot 1 Day 3 AI): −2.6; MGC14128 (51669_r_at) expression change (lot 1 Day 3 AI): −2.8
